Data on 15 molecules can be found in ChEMBL document CHEMBL1139686, “Structure-based design, synthesis, and SAR evaluation of a new series of 8-hydroxyquinolines as HIF-1alpha prolyl hydroxylase inhibitors” (Bioorg Med Chem Lett, 2006).

Assay [1] deals with HEK293. The experiment in a line: Induction of VEGF in HEK293 cells by ELISA. The following applies: Homo sapiens.
Assay [2] addresses Egl nine homolog 1 (Homo sapiens, UniProt Q9GZT9). The experiment in a line: Inhibition of human EGLN1.

Egl nine homolog 1, sequence (Q9GZT9 whole entry): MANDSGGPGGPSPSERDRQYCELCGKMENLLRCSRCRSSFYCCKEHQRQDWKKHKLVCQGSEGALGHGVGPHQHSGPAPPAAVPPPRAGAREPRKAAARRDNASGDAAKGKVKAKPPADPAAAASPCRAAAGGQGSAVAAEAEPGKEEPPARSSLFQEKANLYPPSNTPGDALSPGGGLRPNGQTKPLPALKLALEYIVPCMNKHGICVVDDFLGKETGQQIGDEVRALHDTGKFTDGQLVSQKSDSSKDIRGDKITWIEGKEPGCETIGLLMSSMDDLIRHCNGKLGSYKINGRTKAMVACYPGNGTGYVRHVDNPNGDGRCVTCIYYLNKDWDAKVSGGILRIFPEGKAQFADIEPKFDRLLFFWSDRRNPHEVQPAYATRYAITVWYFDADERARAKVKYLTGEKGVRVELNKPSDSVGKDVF

Consider `O=C(Nc1cccnc1)c1ccc2cccnc2c1O`, for which the EC50 in assay [1] amounted to 1900 nM.

In assay [1], `N#Cc1cccc(NC(=O)c2ccc3cccnc3c2O)c1` showed a concentration giving a half-maximal response (EC50) of 420 nM.

For `O=C(NCCc1ccccc1)c1ccc2cccnc2c1O`, in assay [1], the response was half-maximal at 580 nM (EC50).

Regarding `COC(=O)c1ccc(NC(=O)c2ccc3cccnc3c2O)cc1`, the EC50 in assay [1] was more than 100000 nM.

For the molecule `O=C(O)CNC(=O)c1ccc2cccnc2c1O`, the EC50 in assay [1] is more than 100000 nM.

Consider `COc1cc(NC(=O)c2ccc3cccnc3c2O)cc(OC)c1`, for which, in assay [1], the EC50 worked out at 3200 nM.

Molecule `O=C(NCc1ccccc1)c1ccc2cccnc2c1O` displayed an EC50 in assay [1] of 890 nM.

With `Cc1cc(F)cc(NC(=O)c2ccc3cccnc3c2O)c1`, in assay [1], the midpoint of the response, the EC50, lay at 890 nM.

Regarding `O=C(Nc1ccccc1)c1ccc2cccnc2c1O`, the midpoint of the response in assay [1], the EC50, lay at 630 nM.

Regarding `COc1ccc(CNC(=O)c2ccc3cccnc3c2O)cc1`, in assay [1], the EC50 came out at 620 nM.

In turn, `O=C(Nc1ccc(C(F)(F)F)cc1)c1ccc2cccnc2c1O` gave an EC50 in assay [1] of more than 100000 nM.

In assay [1], `N#Cc1ccc(NC(=O)c2ccc3cccnc3c2O)cc1` showed an EC50 of 140 nM.

In the case of `N#CCNC(=O)c1ccc2cccnc2c1O`, the EC50 in assay [1] was determined as 4100 nM.

In the case of `O=C(O)c1ccc2cccnc2c1O`, the IC50 in assay [2] is more than 100000 nM.

In the case of `O=C(NCc1ccc(Cl)cc1)c1ccc2cccnc2c1O`, in assay [1], the EC50 was 3100 nM.
